Series [1] deals with senescence-accelerated model mice (SAMP8). Briefly: Motor activities of senescence-accelerated model mice (SUPERMEX). Type of series: in vivo, mouse. The conditions noted are these: for Motor activities (Count) / Motor activities, relative proportion to the control group (control = 100): feedstuff containing 0.4%, 11th month after start of test; for Motor activities (Count): average from 16 o'clock to 9 o'clock next morning, n=4 to 7; for Motor activities, relative proportion to the control group (control = 100): control group level taken as 100; for Inhibition of deterioration of the motor activity (in words): ingestion with feedstuff containing 0.4%. The source says: (§1) Three groups were set as follows. One is a group, to which feedstuff (CE-2, a product of CLEA Japan, Inc.) containing 0.4% of reduced coenzyme Q10 produced in Production Example 1 (containing about 1% by weight of oxidized coenzyme Q10) was given. Another group is a group, to which feedstuff (CE-2, a product of CLEA Japan, Inc.) containing 0.4% of commercially-available oxidized coenzyme Q10 (100% oxidized coenzyme Q10, a product of Kaneka Corporation) was given. The rest is a control group, to which only basic feedstuff (CE-2, a product of CLEA Japan, Inc.) was given. Each group consisted of 8 to 10 senescence-accelerated model mice (SAMP8, 3-week old, male). Each group was allowed free access to the feedstuff. During the test period, measurements of motor activities and recording of the number of dead mice were periodically performed. The dose of reduced and oxidized coenzyme Q10 as estimated from the feed consumption and animal body weight corresponded to about 300 to 500 mg/kg/day.
(§2) Results are illustrated in Tables 1 and 2. Table 1 illustrates the survival rates in the control group, the reduced coenzyme Q10-ingested group, and the oxidized coenzyme Q10-ingested group at the 13th month after the start of the test. Each data consists of n=8 to 10. The survival rate was assayed by the Kaplan-Meier method. The symbol “*” expresses that there is a significant difference relative to the control group at the degree of risk of 5%. Table 2 illustrates averages of motor activities (measuring apparatus: SUPERMEX, a product of Muromachi machinery) over a period from 16 o'clock to 9 o'clock in the morning of next day, and the relative proportions to the control group, estimated by assuming the level of the control group as 100. The data illustrated in Table 2 are values for each of the control group, the reduced coenzyme Q10-ingested group, and the oxidized coenzyme Q10-ingested group at the 11th month after the start of the test. Each data consist of n=4 to 7, and significant difference was tested by t-test.

Series [2] shares this test system. Kind of series: Life extending effect for a senescence-accelerated model mouse (survival rate). The note with it: for Survival Rate (%): SAMP8 male mice, feedstuff containing 0.4% (about 300 to 500 mg/kg/day), 13th month after start of test, Kaplan-Meier, n=8 to 10; for Extension of a life span (in words): SAMP8 mice, ingestion with feedstuff containing 0.4%. Type of series: in vivo.
Source text: In order to evaluate these life extension effects, a special senescence-accelerated model mouse (for example, SAMP8), which has a shorter lifetime than a common mouse, may be used as a model for evaluations in vivo, for example. […] This mouse is very useful model for evaluating effects over a life span. The aging states shown in this mouse extremely resembles the aging states of humans, and is also useful to evaluate the health condition of humans in a senectitude.
as §1, §2

In series [3] the test system is rats. The note with it: every day over 52 weeks at 1,200 mg/kg/day; cited from earlier work.
Series [4] concerns rats. The conditions noted are these: rats bred with unsaturated fatty acid-enriched feed; cited from earlier work.
The next series concerns mice. The conditions noted are these: cited from earlier work.

Regarding `COC1=C(OC)C(=O)C(C/C=C(\C)CC/C=C(\C)CC/C=C(\C)CC/C=C(\C)CC/C=C(\C)CC/C=C(\C)CC/C=C(\C)CC/C=C(\C)CC/C=C(\C)CCC=C(C)C)=C(C)C1=O` [Oxidized coenzyme Q10, oxidized coenzyme Q10], in series [1], the “Motor activities (Count)” value stood at 12754 Count; the “Motor activities, relative proportion to the control group (control = 100)” value was “(119)”; the “Inhibition of deterioration of the motor activity (in words)” value is recorded as “slightly improved”. Further, in series [2], the “Survival Rate (%)” value is 40% and the “Extension of a life span (in words)” value is reported as “slightly improved”.

Consider `COc1c(O)c(C)c(C/C=C(\C)CC/C=C(\C)CC/C=C(\C)CC/C=C(\C)CC/C=C(\C)CC/C=C(\C)CC/C=C(\C)CC/C=C(\C)CC/C=C(\C)CCC=C(C)C)c(O)c1OC` [Reduced coenzyme Q10, reduced coenzyme Q10], for which, in series [1], the “Motor activities (Count)” value is given as 17520 Count; the “Motor activities, relative proportion to the control group (control = 100)” value is “(163)”; the “Inhibition of deterioration of the motor activity (in words)” value is “inhibition of deterioration of the motor activity”. Also, in series [2], the “Survival Rate (%)” value is recorded as 75% and the “Extension of a life span (in words)” value is “remarkable extension of a life span”.

With `COC1=C(OC)C(=O)C(C/C=C(\C)CC/C=C(\C)CC/C=C(\C)CC/C=C(\C)CC/C=C(\C)CC/C=C(\C)CC/C=C(\C)CC/C=C(\C)CC/C=C(\C)CCC=C(C)C)=C(C)C1=O` [coenzyme Q10], the “Toxic effect in chronic toxicity test” value with rats [3] is recorded as “no toxic effect was observed”.

ubiquinone: the “Effect on life span of rats” value with rats [4] is recorded as “extended the life span of the rat”. Also, the “Effect on life span of mice” value with mice is given as “did not affect the life span of mice”.

Source of the values: patent US20090148426A1, “COMPOSITION FOR LIFE EXTENSION AND METHOD OF EXTENDING THE LIFE” (priority 2005, published 2009).
